The values that follow come from US20100240768A1, “NOVEL NUTRACEUTICALCOMPOSITIONS CONTAINING THYMOL AND/OR P-CYMENE OR PLANT EXTRACTS FOR COGNITION” (priority 2007, published 2010).

Where two headings read alike, the source gives them in different places.

The test system of assay [1] is NMDA receptor. The note with it: rat hippocampal slice preparation; Bergeron et al 1998; cited from earlier work.
Assay [2] concerns adult mice. The note with it: systemic administration, Kinney et al 2003; cited from earlier work.
Assay [3] has as its system adult mice. The settings on record: systemic administration, Kinney et al 2003; cited from earlier work. This is another data set of the same source.
Assay [4] deals with NMDA receptor. The note with it: mouse hippocampal slice preparation; Bergeron et al 1998; cited from earlier work.
In assay [5] the target is T1, human glycine transporter 1b (GlyT1) (Homo sapiens, UniProt P48067).
T1 construct: expressed in transfected cells
T1 sequence (P48067 1-652 isoform P48067-3): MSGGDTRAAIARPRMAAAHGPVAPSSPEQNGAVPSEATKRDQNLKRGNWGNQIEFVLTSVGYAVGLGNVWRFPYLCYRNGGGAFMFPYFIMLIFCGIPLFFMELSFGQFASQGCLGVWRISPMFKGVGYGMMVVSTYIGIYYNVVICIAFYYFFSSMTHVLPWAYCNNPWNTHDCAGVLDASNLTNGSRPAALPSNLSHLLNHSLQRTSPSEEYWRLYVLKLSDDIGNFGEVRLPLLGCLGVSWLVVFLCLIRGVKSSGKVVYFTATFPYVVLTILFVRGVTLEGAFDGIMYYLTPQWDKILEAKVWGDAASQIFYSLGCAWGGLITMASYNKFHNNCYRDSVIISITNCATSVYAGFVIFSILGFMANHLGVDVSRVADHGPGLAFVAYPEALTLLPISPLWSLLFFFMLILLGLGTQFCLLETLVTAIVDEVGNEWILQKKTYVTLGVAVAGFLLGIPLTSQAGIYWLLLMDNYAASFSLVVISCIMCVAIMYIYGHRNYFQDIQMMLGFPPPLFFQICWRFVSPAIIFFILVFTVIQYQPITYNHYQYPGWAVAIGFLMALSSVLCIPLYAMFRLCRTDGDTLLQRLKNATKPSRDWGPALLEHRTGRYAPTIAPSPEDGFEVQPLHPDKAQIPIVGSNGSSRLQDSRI
The experiment in a line: Inhibition of glycine transporter 1 in a cellular assay ([3H]glycine uptake into CHO cells). In kind it is cell-based. The note with it: for IC50 for tritiated glycine uptake: CHO cells expressing human GlyT1b, pure compounds, mean±s.e.m.; for IC50: dose-response curve, internalization of radioactive glycine into the cells, read-out: IC50 (FIG. 1, GlyT1 inhibition assay). How it is done:
Cells were harvested by trypsinisation one day prior to the assay and were seeded in the above mentioned medium. […] Glycine uptake into the cells was determined by addition of 60 nM radio-labelled [^3H] glycine (Amersham Biosciences GE Healthcare, Slough, UK) and incubation for 30 minutes at room temperature. Following removal of unincorporated label by gentle washing three times with the above buffer, incorporated glycine was quantified by liquid scintillation counting. […] Louis, USA) were used as known inhibitors of GlyT1.

The subject of another assay is pMAPK. The experiment in a line: Hippocampal slice cultures, synaptic marker pMAPK (immunohistochemistry). In kind it is cell-based, Wistar rats. The note with it: 15 min treatment of slices after 48 h culture; compared to sister cultures treated with buffer. Here is the method: (§1) Seven-day-old Wistar rats were decapitated using a guillotine. In less than 1 minute the skull was opened, the cerebral hemispheres were separated and transferred and both hippocampi were dissected and transferred into ice cold buffer containing 137 mM NaCl, 5 mM KCl, 0.85 mM Na2HPO4, 1.5 mM CaCl2, 0.66 mM KH2PO4, 0.28 mM MgSO4, 1 mM MgCl2, 2.7 mM NaHCO3, 1 mM Kynurenic acid and 0.6% D-glucose.
(§2) Transversal hippocampal slices (400 μm) were prepared using a vibrating blade microtome (VT1200S; Leica Microsystems (Schweiz) AG, Heerbrugg, Switzerland) in the same buffer. Hippocampal slices were individually placed on a membrane insert (Millicell Culture Plate Inserts, 0.4 μm) and cultivated at 35° C., 5% CO2, 95% humidity in a medium containing a 1:1 mixture of BME and MEM (both from Invitrogen) containing 25% heat-inactivated horse serum, 1× GlutaMAX, 1× Penicillin/Streptomycin, 0.6% glucose and 1 mM Kynurenic acid (Stoppini, Buchs and Muller (1991), J. Neurosci. Methods, 37(2), 173-82).
(§3) After 48 h in culture, synaptic NMDA receptors were activated by addition of thyme extract or its constituents for 15 min in 140 mM NaCl, 5 mM KCl, 1.3 mM CaCl2, 25 mM HEPES (pH 7.3), 33 mM D-glucose and 0.02 mM bicuculline methiodide. […] An additional positive control comprised the addition of 200 μM glycine to sister cultures. After the treatments, sections were washed and fixed for immunohistochemistry. Markers of enhanced synaptic activity, normally associated with long-term potentiation, representing an ex vivo model of learning and memory were quantitated (see Table 2, below).
(§4) Table 2. […]. The activation of any of these markers (or a combination thereof) is observed in classical LTP experiments.
(§5) Treatment of hippocampal cultures with thyme extracts as well as with both p-cymene and thymol induced biochemical markers typical for LTP (pCREB: activated form of the cAMP response element binding protein; pMAPK: activated form of the mitogen-activated protein kinase; GLUR1: cell surface presence of AMPA receptor 1).

In the next assay the test system is pCREB. The experiment in a line: Hippocampal slice cultures, synaptic marker pCREB (immunohistochemistry). The note with it: 15 min treatment of slices after 48 h culture; compared to sister cultures treated with buffer. The class given is cell-based, Wistar rats. How it is done:
as §1, §2, §3, §4, §5

The test system of another assay is GluR1. Put plainly: Hippocampal slice cultures, synaptic marker GluR1 (cell surface AMPA receptor 1). The class given is cell-based, Wistar rats. The note with it: 15 min treatment of slices after 48 h culture; compared to sister cultures treated with buffer. How it is done: as §1, §2, §3, §4, §5

As to `CN(CCC(Oc1ccc(-c2ccccc2)cc1)c1ccc(F)cc1)CC(=O)O` (stereo not shown) [NFPS, N-[3-(4′-fluorophenyl)-3-(4′-phenylphenoxy)]propylsarcosine], the “NMDA receptor responses in CA1 pyramidal cells” value in the assay with NMDA receptor [1] and in the assay on NMDA receptor [4] was “enhanced” throughout. Further, in the assay on adult mice [2], the “LTP in the dentate gyrus” value is on record as “increased”. In addition, the “Prepulse inhibition of the acoustic startle response” value in the assay on adult mice [3] was “enhanced”.

For Caryophyllene, in assay [5], the “IC50 for tritiated glycine uptake” value is “inactive”. In the assay with pMAPK, the pMAPK relative activation entry is “±”. In the assay on pCREB, the pCREB relative activation result is reported as “±”.

As for `C=CC(C)(O)CCC=C(C)C` (stereo not shown) [Linalool], the “IC50 for tritiated glycine uptake” value in assay [5] was “inactive”. The pMAPK relative activation entry with pMAPK was “±”. For the same compound, in the assay with GluR1, the “GluR1 relative activation (symbol)” value was “±”. For the same compound, the pCREB relative activation entry with pCREB is “±”.

Broadly, the IC50 is the concentration at which inhibition is half-maximal. Consider `Cc1ccc(C(C)C)c(O)c1` [Thymol], for which the IC50 in assay [5] was found to be 13.6 µM. Further, the GluR1 relative activation in the assay with GluR1 is recorded as 250-767%. Further, the pCREB relative activation result with pCREB is given as “++++”.

With `CNCC(=O)O` [Sarcosine, reference compound], the IC50 in assay [5] amounted to 0.0359 µM.

Consider `Cc1ccc(C(C)C)cc1` [P-Cymene], for which, in assay [5], the “IC50 for tritiated glycine uptake” value was “inactive”. Moreover, in the assay with pMAPK, the pMAPK relative activation result is recorded as “++++”. Moreover, the “GluR1 relative activation (symbol)” value in the assay on GluR1 was “±”. For the same compound, in the assay with pCREB, the pCREB relative activation result is listed as “++”.
